Data taken from publication PMC6327040, “A novel scaffold for EGFR inhibition: Introducing N-(3-(3-phenylureido)quinoxalin-6-yl) acrylamide derivatives” (Scientific Reports, 2019).

Key:
[1] = biological target: EGFRL858R (Homo sapiens, UniProt P00533, L858R); test: HTRF KinEASE-TK biochemical assay (TR-FRET), EGFR-L858R
Protocol: (§2) An artificial substrate peptide (TK-substrate from Cisbio) was phosphorylated by EGFR. After completion of the reaction (reaction times: 25 min for wild-type, 15 min for L858R, 20 min for T790M/L858R), the reaction was stopped by addition of a buffer containing EDTA as well as, an anti-phosphotyrosine antibody labeled with europium cryptate and streptavidin labeled with the fluorophore XL665. FRET between europium cryptate and XL665 was measured after an additional hour of incubation to quantify the phosphorylation of the substrate peptide. […] Kinase and inhibitor were preincubated for 30 min (EGFR-wt) and 1 h (EGFR-L858R and EGFR-L858R/T790M) before the reaction was started by addition of ATP and substrate peptide. An EnVision multimode plate reader (Perkin Elmer) was used to measure the fluorescence of the samples at 620 nm (Eu-labeled antibody) and 665 nm (XL665 labeled streptavidin) 50 μs after excitation at 320 nm. The quotient of both intensities for reactions made with eight different inhibitor concentrations was then analyzed using the Quattro Software Suite for IC50-determination. Each reaction was performed in duplicate, and at least three independent determinations of each IC50 were made.

[2] = biological target: EGFRwt (Homo sapiens, UniProt P00533); test: HTRF KinEASE-TK biochemical assay (TR-FRET), EGFRwt
Protocol: as §2

[3] = biological target: EGFRL858R/T790M (Homo sapiens, UniProt P00533, L858R/T790M); test: HTRF KinEASE-TK biochemical assay (TR-FRET), EGFR-L858R/T790M; details: for inhibitory activity on EGFRL858R/T790M (in words): enzymatic in vitro determination
Sequence of EGFRL858R/T790M (P00533 25-1210 T790M/L858R): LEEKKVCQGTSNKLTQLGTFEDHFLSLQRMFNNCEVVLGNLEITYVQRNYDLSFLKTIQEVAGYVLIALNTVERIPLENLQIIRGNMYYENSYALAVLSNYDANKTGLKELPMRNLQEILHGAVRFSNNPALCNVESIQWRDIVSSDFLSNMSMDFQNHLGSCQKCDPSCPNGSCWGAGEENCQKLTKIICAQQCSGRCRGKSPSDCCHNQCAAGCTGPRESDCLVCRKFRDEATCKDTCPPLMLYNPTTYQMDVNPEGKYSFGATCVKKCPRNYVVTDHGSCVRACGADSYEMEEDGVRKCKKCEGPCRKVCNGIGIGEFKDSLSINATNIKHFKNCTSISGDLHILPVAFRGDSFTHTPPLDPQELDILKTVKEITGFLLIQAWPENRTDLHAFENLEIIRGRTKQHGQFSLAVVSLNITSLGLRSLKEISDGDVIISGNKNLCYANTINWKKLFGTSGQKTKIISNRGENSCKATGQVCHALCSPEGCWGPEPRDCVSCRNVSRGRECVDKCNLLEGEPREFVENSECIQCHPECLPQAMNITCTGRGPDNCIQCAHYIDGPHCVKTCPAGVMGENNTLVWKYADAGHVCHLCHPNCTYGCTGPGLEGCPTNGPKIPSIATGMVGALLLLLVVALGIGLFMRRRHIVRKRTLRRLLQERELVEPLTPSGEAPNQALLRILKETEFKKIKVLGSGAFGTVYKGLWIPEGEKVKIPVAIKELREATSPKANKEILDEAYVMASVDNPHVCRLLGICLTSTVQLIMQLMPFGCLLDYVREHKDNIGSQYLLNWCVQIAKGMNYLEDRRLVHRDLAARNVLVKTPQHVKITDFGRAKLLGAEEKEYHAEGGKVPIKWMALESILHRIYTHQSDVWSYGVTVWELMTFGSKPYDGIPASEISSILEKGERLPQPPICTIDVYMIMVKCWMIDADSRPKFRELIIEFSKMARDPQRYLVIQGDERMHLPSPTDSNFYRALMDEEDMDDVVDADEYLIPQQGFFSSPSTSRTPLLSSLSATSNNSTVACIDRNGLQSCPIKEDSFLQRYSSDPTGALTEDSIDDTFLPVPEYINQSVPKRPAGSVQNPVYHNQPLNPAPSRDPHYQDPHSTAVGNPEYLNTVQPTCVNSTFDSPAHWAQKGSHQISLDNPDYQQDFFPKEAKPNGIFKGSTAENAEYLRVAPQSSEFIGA
Protocol: as §2

[4] = test system: patient-derived tumor cell panel; test: Patient-derived tumor cell panel screening (Oncotest); assay type: cell-based
Protocol: (§1) Based on this premise, the inhibitory activity of compounds 7a-m towards a patient-derived tumor cell panel[49] was evaluated, using a single screening concentration of 10 μM. […] In fact, it is worth mentioning that, although the data observed in a cellular assay have no direct correlation to EGFR enzymatic tests, this phenomenon is not unusual and is related to the nature of the assays itself. In enzymatic assays there is no influence of membrane permeability issues, while in cell viability assays compounds must penetrate the cell membrane and resist the cellular environment for long enough for the ligand-receptor interaction to occur and to trigger the biological activity.

[5] = test system: PRXF DU145; test: PD tumor cell line growth inhibition; assay type: cell-based; details: Homo sapiens, DU-145, Prostate, read-out: % inhibition (cellular growth inhibition related to negative control)
Protocol: as §1

[6] = test system: BXF 1218L; test: PD tumor cell line growth inhibition; assay type: cell-based; details: Bladder, read-out: % inhibition (cellular growth inhibition related to negative control)
Protocol: as §1

[7] = test system: LXFL H460; test: PD tumor cell line growth inhibition; assay type: cell-based; details: Homo sapiens, NCI-H460, Lung, read-out: % inhibition (cellular growth inhibition related to negative control)
Protocol: as §1

[8] = test system: OVXF 899L; test: PD tumor cell line growth inhibition; assay type: cell-based; details: Ovary, read-out: % inhibition (cellular growth inhibition related to negative control)
Protocol: as §1

[9] = test system: SXF1301L; test: PD tumor cell line growth inhibition; assay type: cell-based; details: Sarcoma, read-out: % inhibition (cellular growth inhibition related to negative control)
Protocol: as §1

[10] = test system: CXF HCT116; test: PD tumor cell line growth inhibition; assay type: cell-based; details: Homo sapiens, HCT-116, Colon, read-out: % inhibition (cellular growth inhibition related to negative control)
Protocol: as §1

[11] = test system: RXF 486L; test: PD tumor cell line growth inhibition; assay type: cell-based; details: Kidney, read-out: % inhibition (cellular growth inhibition related to negative control)
Protocol: as §1

[12] = test system: LIXF 575L; test: PD tumor cell line growth inhibition; assay type: cell-based; details: Liver, read-out: % inhibition (cellular growth inhibition related to negative control)
Protocol: as §1

[13] = test system: GXF 251L; test: PD tumor cell line growth inhibition; assay type: cell-based; details: Stomach, EGFRdel-exon19 expressed, read-out: % inhibition (cellular growth inhibition related to negative control)
Protocol: as §1

[14] = test system: CXF DIFI; test: PD tumor cell line growth inhibition; assay type: cell-based; details: Homo sapiens, Colon, EGFRdel-exon19 expressed, read-out: % inhibition (cellular growth inhibition related to negative control)
Protocol: as §1

[15] = test system: MEXF 1737l; test: PD tumor cell line growth inhibition; assay type: cell-based; details: Melanoma, read-out: % inhibition (cellular growth inhibition related to negative control)
Protocol: as §1

[16] = test system: CXF SW620; test: PD tumor cell line growth inhibition; assay type: cell-based; details: Homo sapiens, SW-620, Colon, read-out: % inhibition (cellular growth inhibition related to negative control)
Protocol: as §1

[17] = test system: PAXF 1657l; test: PD tumor cell line growth inhibition; assay type: cell-based; details: Pancreas, read-out: % inhibition (cellular growth inhibition related to negative control)
Protocol: as §1

[18] = test system: MEXF 276L; test: PD tumor cell line growth inhibition; assay type: cell-based; details: Homo sapiens, MEXF276L, Melanoma, read-out: % inhibition (cellular growth inhibition related to negative control)
Protocol: as §1

[19] = test system: MAXF MDA231; test: PD tumor cell line growth inhibition; assay type: cell-based; details: Homo sapiens, MDA-MB-231, Breast, read-out: % inhibition (cellular growth inhibition related to negative control)
Protocol: as §1

[20] = test system: MAXF 401NL; test: PD tumor cell line growth inhibition; assay type: cell-based; details: Breast, read-out: % inhibition (cellular growth inhibition related to negative control)
Protocol: as §1

[21] = test system: BXF T24; test: PD tumor cell line growth inhibition; assay type: cell-based; details: Bladder, read-out: % inhibition (cellular growth inhibition related to negative control)
Protocol: as §1

[22] = test system: LXFA NCI-H1975; test: PD tumor cell line growth inhibition; assay type: cell-based; details: Homo sapiens, Lung, read-out: % inhibition (cellular growth inhibition related to negative control)
Protocol: as §1

[23] = test system: LXFL 529L; test: PD tumor cell line growth inhibition; assay type: cell-based; details: Lung, EGFR overexpressed, read-out: % inhibition (cellular growth inhibition related to negative control)
Protocol: as §1

[24] = test system: MEXF 1539L; test: PD tumor cell line growth inhibition; assay type: cell-based; details: Melanoma, read-out: % inhibition (cellular growth inhibition related to negative control)
Protocol: as §1

[25] = test system: GXA MKN45; test: PD tumor cell line growth inhibition; assay type: cell-based; details: Homo sapiens, MKN-45, Stomach, read-out: % inhibition (cellular growth inhibition related to negative control)
Protocol: as §1

[26] = test system: LXFA PC9; test: PD tumor cell line growth inhibition; assay type: cell-based; details: Lung, EGFRdel-exon19 expressed, read-out: % inhibition (cellular growth inhibition related to negative control)
Protocol: as §1

[27] = test system: PAXF 546L; test: PD tumor cell line growth inhibition; assay type: cell-based; details: Pancreas, read-out: % inhibition (cellular growth inhibition related to negative control)
Protocol: as §1

[28] = test system: CXF RKO; test: PD tumor cell line growth inhibition; assay type: cell-based; details: Colon, read-out: % inhibition (cellular growth inhibition related to negative control)
Protocol: as §1

[29] = test system: MAXF MCF7; test: PD tumor cell line growth inhibition; assay type: cell-based; details: Homo sapiens, Breast, read-out: % inhibition (cellular growth inhibition related to negative control)
Protocol: as §1

[30] = test system: UXF 1138L; test: PD tumor cell line growth inhibition; assay type: cell-based; details: Uterus, read-out: % inhibition (cellular growth inhibition related to negative control)
Protocol: as §1

[31] = test system: CXF Colo205; test: PD tumor cell line growth inhibition; assay type: cell-based; details: Homo sapiens, COLO 205, Colon, read-out: % inhibition (cellular growth inhibition related to negative control)
Protocol: as §1

[32] = test system: CNXF A172; test: PD tumor cell line growth inhibition; assay type: cell-based; details: Homo sapiens, A 172, Glioblastoma, read-out: % inhibition (cellular growth inhibition related to negative control)
Protocol: as §1

[33] = test system: RXF 786-O; test: PD tumor cell line growth inhibition; assay type: cell-based; details: Homo sapiens, 786-0, Kidney, read-out: % inhibition (cellular growth inhibition related to negative control)
Protocol: as §1

[34] = test system: LXFA 629L; test: PD tumor cell line growth inhibition; assay type: cell-based; details: Lung, read-out: % inhibition (cellular growth inhibition related to negative control)
Protocol: as §1

[35] = enzymatic in vitro determination

Sequence of EGFRL858R (P00533 25-1210 L858R): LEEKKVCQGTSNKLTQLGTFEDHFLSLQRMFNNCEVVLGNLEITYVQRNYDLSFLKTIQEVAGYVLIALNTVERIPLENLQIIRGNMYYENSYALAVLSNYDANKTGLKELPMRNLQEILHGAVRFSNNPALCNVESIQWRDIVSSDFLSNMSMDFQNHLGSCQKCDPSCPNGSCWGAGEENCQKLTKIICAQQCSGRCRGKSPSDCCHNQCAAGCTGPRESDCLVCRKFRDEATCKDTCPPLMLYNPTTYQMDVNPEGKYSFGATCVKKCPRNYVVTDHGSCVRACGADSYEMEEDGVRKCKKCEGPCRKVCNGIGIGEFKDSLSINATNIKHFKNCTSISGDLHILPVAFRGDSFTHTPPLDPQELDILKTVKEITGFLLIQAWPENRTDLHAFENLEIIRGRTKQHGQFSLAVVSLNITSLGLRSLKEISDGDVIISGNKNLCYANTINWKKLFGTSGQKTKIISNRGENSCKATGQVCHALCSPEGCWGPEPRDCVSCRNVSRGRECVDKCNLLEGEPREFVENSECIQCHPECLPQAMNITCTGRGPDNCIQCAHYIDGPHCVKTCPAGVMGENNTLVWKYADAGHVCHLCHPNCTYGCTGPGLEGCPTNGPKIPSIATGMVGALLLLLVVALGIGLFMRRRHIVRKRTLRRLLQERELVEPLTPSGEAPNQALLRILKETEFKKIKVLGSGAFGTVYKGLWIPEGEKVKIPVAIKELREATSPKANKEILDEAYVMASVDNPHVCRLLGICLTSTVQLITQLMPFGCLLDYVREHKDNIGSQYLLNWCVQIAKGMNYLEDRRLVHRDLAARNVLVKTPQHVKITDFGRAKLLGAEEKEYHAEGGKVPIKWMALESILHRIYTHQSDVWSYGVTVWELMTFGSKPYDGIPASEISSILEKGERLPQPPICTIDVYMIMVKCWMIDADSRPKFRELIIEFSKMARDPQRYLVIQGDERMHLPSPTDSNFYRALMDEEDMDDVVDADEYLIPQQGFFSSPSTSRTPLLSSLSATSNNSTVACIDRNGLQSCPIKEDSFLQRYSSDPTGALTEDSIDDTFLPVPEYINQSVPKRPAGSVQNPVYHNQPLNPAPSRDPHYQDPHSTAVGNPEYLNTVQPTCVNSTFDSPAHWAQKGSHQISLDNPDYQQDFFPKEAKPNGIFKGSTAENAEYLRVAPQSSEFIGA
Sequence of EGFRwt (P00533 25-1210): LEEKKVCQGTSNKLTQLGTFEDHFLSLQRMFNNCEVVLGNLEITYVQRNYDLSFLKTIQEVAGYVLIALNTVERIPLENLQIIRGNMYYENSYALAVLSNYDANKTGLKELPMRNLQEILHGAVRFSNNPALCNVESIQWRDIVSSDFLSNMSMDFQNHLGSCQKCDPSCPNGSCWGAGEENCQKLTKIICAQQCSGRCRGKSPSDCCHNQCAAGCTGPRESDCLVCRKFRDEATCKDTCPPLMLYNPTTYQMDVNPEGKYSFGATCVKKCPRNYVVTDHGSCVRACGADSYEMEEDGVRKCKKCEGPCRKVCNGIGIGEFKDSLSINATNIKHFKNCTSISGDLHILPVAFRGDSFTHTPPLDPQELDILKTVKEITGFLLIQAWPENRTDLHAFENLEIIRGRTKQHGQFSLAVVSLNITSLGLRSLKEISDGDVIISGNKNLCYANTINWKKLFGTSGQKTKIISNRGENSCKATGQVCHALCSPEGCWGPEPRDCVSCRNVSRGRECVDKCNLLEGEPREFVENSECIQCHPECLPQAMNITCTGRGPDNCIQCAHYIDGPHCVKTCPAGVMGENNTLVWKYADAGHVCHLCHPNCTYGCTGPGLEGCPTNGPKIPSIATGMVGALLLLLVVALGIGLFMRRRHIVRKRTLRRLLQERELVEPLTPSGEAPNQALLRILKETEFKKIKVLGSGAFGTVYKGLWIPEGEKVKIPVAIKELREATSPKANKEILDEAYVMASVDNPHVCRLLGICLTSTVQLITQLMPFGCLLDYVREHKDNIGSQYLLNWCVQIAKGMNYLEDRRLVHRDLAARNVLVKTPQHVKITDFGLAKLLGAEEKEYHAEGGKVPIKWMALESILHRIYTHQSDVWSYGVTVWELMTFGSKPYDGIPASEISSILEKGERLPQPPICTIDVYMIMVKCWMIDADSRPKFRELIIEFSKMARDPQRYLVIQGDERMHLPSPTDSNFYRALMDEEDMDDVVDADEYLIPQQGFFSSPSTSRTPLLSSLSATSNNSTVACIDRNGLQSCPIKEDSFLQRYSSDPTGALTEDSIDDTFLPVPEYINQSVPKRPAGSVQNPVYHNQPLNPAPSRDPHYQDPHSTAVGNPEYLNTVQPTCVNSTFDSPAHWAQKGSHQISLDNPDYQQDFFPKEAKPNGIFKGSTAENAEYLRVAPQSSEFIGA

In the case of `O=C(CCl)Nc1ccc2ncc(NC(=O)Nc3ccccc3)nc2c1` [Compound 7j, 2-chloro-N-(3-(3-phenylureido)quinoxalin-6-yl)acetamide], the IC50 [1] is reported as 270 ± 202 nM, the melting point is reported as 249 to 252 °C and the IC50 [2] is reported as 123 ± 134 nM. For the same molecule, the IC50 [3] was 823 ± 613 nM.

With `N#CCC(=O)Nc1ccc2ncc(NC(=O)Nc3ccc(Cl)c(C(F)(F)F)c3)nc2c1` [Compound 7d, N-(3-(3-(4-chloro-3-(trifluoromethyl)phenyl)ureido)quinoxalin-6-yl)-2-cyanoacetamide] the IC50 [1] was over 10000 nM, the melting point was 243 to 246 °C and the IC50 [2] was over 10000 nM. The IC50 [3] was 9870 ± 265 nM.

`N#CCC(=O)Nc1ccc2ncc(NC(=O)Nc3ccccc3)nc2c1` [Compound 7k, 2-cyano-N-(3-(3-phenylureido)quinoxalin-6-yl)acetamide] showed an IC50 [1] of 445 ± 105 nM, a melting point of 238 to 241 °C and an IC50 [2] of 3120 ± 787 nM. It also gave an IC50 [3] of 6290 ± 2790 nM.

With `O=C(CCl)Nc1ccc2ncc(NC(=O)Nc3cccc(C(F)(F)F)c3)nc2c1` [Compound 7g, 2-chloro-N-(3-(3-(3-(trifluoromethyl)phenyl)ureido)quinoxalin-6-yl)acetamide] the IC50 [1] was 2100 ± 505 nM, the “inhibitory activity on EGFRL858R (in words)” value [1, 35] was “weak activity” and the melting point was 260 to 263 °C. For the same molecule, the IC50 [2] was 179 ± 61 nM, the “inhibitory activity on EGFRwt (in words)” value [2, 35] was “weak activity” and the IC50 [3] was 9830 ± 297 nM. The “inhibitory activity on EGFRL858R/T790M (in words)” value [3] was “no inhibitory activity”.

With `C=CC(=O)Nc1ccc2ncc(NC(=O)Nc3ccccc3)nc2c1` [Compound 7h, N-(3-(3-phenylureido)quinoxalin-6-yl)acrylamide] the IC50 [1] was 18 ± 3 nM, the inhibition at 10 µM ([4]; 10 μM, GXF 251L, CXF DiFi, LXFA PC9, LXFL 529L and LXFA NCI-H1975 cell lines, read-out: growth inhibition effect) was 55 to 77% and the “tumor cell lines' growth inhibition / cytotoxic activity (in words)” value ([4]; single screening concentration of 10 μM) was “important cytotoxic activity”. It also gave an inhibition at 10 µM [5] of 91%, an inhibition at 10 µM [6] of 84% and an inhibition at 10 µM [7] of 33%. The inhibition at 10 µM [8] was 87%, the inhibition at 10 µM [9] was 89% and the inhibition at 10 µM [10] was 92%. The inhibition at 10 µM [11] was 86%, the inhibition at 10 µM [12] was 40% and the inhibition at 10 µM [13] was 55%. It also gave an inhibition at 10 µM [14] of 77%, an inhibition at 10 µM [15] of 15% and an inhibition at 10 µM [16] of 82%. For the same molecule, the inhibition at 10 µM [17] was 89%, the inhibition at 10 µM [18] was 88% and the inhibition at 10 µM [19] was 67%. The inhibition at 10 µM [20] was 72%, the inhibition at 10 µM [21] was 76% and the inhibition at 10 µM [22] was 68%. The inhibition at 10 µM [23] was 74%, the inhibition at 10 µM [24] was 93% and the inhibition at 10 µM [25] was 8%. It also gave an inhibition at 10 µM [26] of 75%, an inhibition at 10 µM [27] of 58% and an inhibition at 10 µM [28] of 82%. For the same molecule, the inhibition at 10 µM [29] was 76%, the inhibition at 10 µM [30] was 91% and the inhibition at 10 µM [31] was 56%. It also gave an inhibition at 10 µM [32] of 86%, an inhibition at 10 µM [33] of 80% and an inhibition at 10 µM [34] of 76%. For the same molecule, the IC50 [2] was 25 ± 4 nM, the IC50 [3] was 1680 ± 1510 nM and the “inhibitory activity on EGFRL858R/T790M (in words)” value [3] was “weak inhibition”.

In the case of `CN(C)C/C=C/C(=O)Nc1ccc2ncc(NC(=O)Nc3ccc(Cl)c(C(F)(F)F)c3)nc2c1` [Compound 7e, (E)-N-(3-(3-(4-chloro-3-(trifluoromethyl)phenyl)ureido)quinoxalin-6-yl)-4-(dimethylamino)but-2-enamide], the IC50 [1] is reported as over 10000 nM, the melting point is reported as 217 to 220 °C and the IC50 [2] is reported as over 10000 nM. For the same molecule, the IC50 [3] was 6140 ± 3470 nM.

In the case of `C=CC(=O)Nc1ccc2ncc(NC(=O)Nc3ccc(F)c(Cl)c3)nc2c1` [Compound 7m, N-(3-(3-(3-chloro-4-fluorophenyl)ureido)quinoxalin-6-yl) acrylamide], the IC50 [1] is reported as over 10000 nM, the melting point is reported as 259 to 262 °C and the IC50 [2] is reported as over 10000 nM. For the same molecule, the IC50 [3] was over 10000 nM.
